From US11242406B2, “Methods for the treatment of a cancer or fibrotic disorder associated with MENA or MENA(INV) by administering a map kinase inhibitor” (METASTAT, INC., priority 2016, dated 2022)

Key:
[1] = test system: MVD7-MENA^INV cells; test: Fibronectin fibrillogenesis assay; format: cell-based, mouse; conditions: for MENA-dependent fibronectin fibrillogenesis phenotype compared to the MENA-null control: FIG. 8
Experimental: MENA kinase inhibitors reversed MENA-dependent fibrillogenesis. The ability of the various MENA kinase inhibitors described above to reverse MENA-dependent fibrillogenesis was evaluated in fibronectin fibrillogenesis assays using the […] cell line. Cells were pretreated with MENA kinase inhibitor for 1 hour at the concentrations indicated in FIG. 8 and cultured in medium containing fibronectin-depleted serum supplemented with labeled fibronectin. After 4 hours, fibronectin fibril formation was evaluated by quantitative immunostaining using imageJ software to measure abundance and distribution of fibrillar fibronectin (anova, n=3). The results are plotted relative to control MVD7-GFP cells in FIG. 8.

[2] = test system: MDA-MB-231-MENA^INV cells; test: Matrigel invasion chamber assay (cell invasion and chemotaxis towards EGF); format: cell-based, human; conditions: 18 hours
Experimental: Addition of MENA kinase inhibitors to cells grown in fully supplemented medium reduce the capability of the breast cancer cell line to migrate in the wound healing assay (panels (c)-(h)). Panel (a) represents the wound size at the start of treatment. Cells that were cultured overnight in fully supplemented medium without drug (panel (b)) were able to close 50% of the wound. […] The ability of the various MENA kinase inhibitors described above to inhibit […] tumor cell invasion was tested using the BioCoatTM Matrigel® invasion chamber assay (Corning, Tewksbury, Mass.). […] Inserts were transferred to wells containing basal media (negative control) and the chemoattractant EGF with or without each of the MENA kinase inhibitors. After 18 hours cells that invaded the lower cell surface of the membrane were fixed, stained and evaluated by quantitative immunostaining using imageJ software.

[3] = test system: MDA-MB-231-MENA^INV cells; test: Wound healing cell migration assay; format: cell-based, human; conditions: 18 hours, fully supplemented medium, without drug 50%
Experimental: MENA kinase inhibitors block MENA-dependent cell migration in a wound-healing assay. The ability of the various MENA kinase inhibitors described above to block MENA-dependent cell migration of MDA-MB-231-MENA^INV cells was assayed using the CySelect™ wound healing assay kit (Cell Biolabs, Inc., San Diego, Calif.). Following the manufacturer's protocol, cells were cultured in fibronectin coated wells until a monolayer formed around the wound insert. The insert was then removed and cells were cultured in the presence of inhibitor at the indicated concentrations in FIG. 9 in fully supplemented medium. After 18 hours the cells were fixed, stained, and evaluated for their capacity to close the wound generated by the insert by fluorescence microscopy.

[4] = test system: MDA-MB-231-MENA^INV cells; test: Boyden Chamber cell migration and chemotaxis assay; format: cell-based, human; conditions: 18 hours
Experimental: MENA kinase inhibitors reverse MENA-dependent cell migration and chemotaxis in the Boyden Chamber Assay. […] The fibronectin coated upper chamber were then transferred to wells containing basal media (negative controls) and wells containing basal media, EGF, and MENA kinase inhibitors at the concentrations indicated in FIG. 11. All treatment conditions except the basal negative control used EGF as the chemoattractant. After 18 hours, cells that migrated through the pores toward the chemotattractant were evaluated by quantitative immunostaining using imageJ software as described above. Data were analyzed using anova (n=2) and reported relative to the EGF stimulated cells absent any inhibitor positive control (0) as mean with error of the mean in FIG. 11.

[5] = test system: MENA kinase-dependent phosphorylation of MENA^INV at Ser144; test: Quantitative immunoblot of pSer125/pSer144 MENA/MENA^INV in TNF-alpha stimulated MVD7-MENA^INV cells; format: cell-based, mouse; conditions: FIG. 2
Experimental: Anti-phospho-MENA antibodies specific for the Ser125/Ser144 phosphorylation site in MENA/MENA^INV were produced in animals injected with peptide containing mouse MENA residues 117-133 phosphorylated at Ser125 and conjugated to KLH (Covance Research Products, Denver, Pa.). Purification of pSer125MENA antibody was performed according to the protocol of Archuleta, et al. (Archuleta, Stutzke, Nixon, & Browning, Optimized protocol to make phospho-specific antibodies that work. Methods Mol. Biol. 717:69-88, 2011). Peptides used for purification (phosphorylated peptide: Ac-CKKGPTLPRQN(pS)QLPAQVQN (SEQ ID NO: 32) and dephosphorylated: […] (SEQ ID NO:32)) were prepared by Covance Research Products (BioLegend, San Diego, Calif.) and ThermoScientific, Grand Island, N.Y., respectively. Peptides were coupled to SulfoLink Coupling Resin Column (ThermoScientific) according to manufacturer's instructions. Sera were sequentially passed over column containing dephosphorylated peptide, and then over the column containing phosphorylated peptide. Antibodies bound to second column were eluted using IgG Elution buffer (ThermoScientific).
Phosphorylation of MENA and or MENA isoforms is inhibited by MENA kinase inhibitors from the Ras-Raf-MEK-MAPK/ERK and PI3K-AKT/mTOR pathways. […] Phosphorylation was measured by quantitative immunoblot assays using MENA antibodies specific for the phosphorylation of MENA/MENA^INV at Ser125/Ser144 Cells were stimulated and the MENA kinase was activated through treatment with 10 ng/ml TNF-alpha. […]

[6] = test system: MENA Ser125 phosphorylation site; test: Mass spec phosphoproteomic analysis of MAPKAPK2/MK2-dependent phosphorylation; format: cell-based; conditions: doxorubicin treated cells
From the text: (§1) The present invention is also based in part on the discovery that the peptide sequence proximal to the serine 125 (Ser125) phosphorylation site of MENA and the equivalent serine 144 (Ser144) phosphorylation site of MENA^INV are potent substrates of the MAPKAPK2/MK2 kinase. Replacement of Ser125 in MENA and or Ser144 in MENA^INV with a non-phosphorylable amino acid changes the peptide substrates to effective peptide inhibitors of the MAPKAPK2/MK2 kinase. […] In doxorubicin treated cells the MENA Ser125 phosphorylation site becomes more heavily phosphorylated (˜8× increase) than the HSP27 Ser82 phosphorylation site (˜2.5× increase). The Ser125/Ser144 serine residue was replaced with a non-phosphorylatable glycine residue to convert the MENA/MENA^INV substrate peptides into effective MENA kinase inhibitors.

[7] = test system: HSP27 Ser82 phosphorylation site; test: as above; format: cell-based; conditions: doxorubicin treated cells
From the text: as §1

[8] = molecular target: MAPKAPK2/MK2 (Homo sapiens, UniProt P49137); conditions: cited from earlier work
Sequence of MAPKAPK2/MK2 (P49137 whole entry): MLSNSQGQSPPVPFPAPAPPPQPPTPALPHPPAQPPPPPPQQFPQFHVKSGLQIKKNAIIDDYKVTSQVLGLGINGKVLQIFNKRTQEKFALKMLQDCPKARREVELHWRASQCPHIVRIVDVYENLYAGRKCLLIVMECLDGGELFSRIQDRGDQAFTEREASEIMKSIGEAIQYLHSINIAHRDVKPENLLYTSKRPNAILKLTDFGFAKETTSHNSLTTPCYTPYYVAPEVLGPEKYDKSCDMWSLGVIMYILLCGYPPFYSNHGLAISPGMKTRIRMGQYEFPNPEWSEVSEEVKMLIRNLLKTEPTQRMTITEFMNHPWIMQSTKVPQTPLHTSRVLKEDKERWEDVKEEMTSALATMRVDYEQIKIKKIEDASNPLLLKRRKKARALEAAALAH

Molecule	MENA-dependent fibronectin fibrillogenesis phenotype compared to the MENA-null control [1]	relative number of cells that invade through Matrigel insert membranes towards EGF ([2]; 10 uM)	wound closure ([3]; 10 uM) [%]	MENA-dependent migration/chemotaxis phenotype (cells migrated through fibronectin coated membrane towards EGF) ([4]; 10 uM)	level of phosphorylated MENA^INV ([5]; inhibitor at 1 uM)	further results
O=c1cc(N2CCOCC2)oc2c(-c3ccccc3)cccc12 [LY294002, 2-morpholin-4-yl-8-phenylchromen-4-one]	significantly reduced	significantly reduce	15	significantly reverse		
CC(C)(C)Cn1c(N)nc2ccc(-c3[nH]c(C(C)(C)C)nc3-c3ccc(F)cc3)nc21.CS(=O)(=O)O [LY2228820, 5-[2-tert-butyl-4-(4-fluorophenyl)-1H-imidazol-5-yl]-3-(2,2-dimethylpropyl)imidazo[4,5-b]pyridin-2-amine; methanesulfonic acid]		significantly reduce	20	significantly reverse	significantly reduce	
O=C(NOC[C@H](O)CO)c1ccc(F)c(F)c1Nc1ccc(I)cc1F [PD0325901, N-[(2R)-2,3-dihydroxypropoxy]-3,4-difluoro-2-[(2-fluoro-4-iodophenyl)amino]-benzamide]	significantly reduced				significantly reduce	relative number of cells that invade through Matrigel insert membranes towards EGF ([2]; 1 uM): significantly reduce; wound closure ([3]; 1 uM): 15%; MENA-dependent migration/chemotaxis phenotype (cells migrated through fibronectin coated membrane towards EGF) ([4]; 1 uM): significantly reverse
Cc1ccc(-c2ccc3c(ccc4sc5c(c43)NC[C@@H](C)NC5=O)n2)cn1.O [PF-3644022, (10R)-9,10,11,12-tetrahydro-10-methyl-3-(6-methyl-3-pyridinyl)-8H-[1,4]diazepino[5′,6′:4,5]thieno[3,2-f]quinolin-8-one hydrate]		significantly reduce	10	significantly reverse		level of phosphorylated MENA^INV ([5]; inhibitor at 10 uM): significantly reduce
COc1cccc2c1C(=O)c1c(O)c3c(c(O)c1C2=O)C[C@@](O)(C(=O)CO)C[C@@H]3O[C@H]1C[C@H](N)[C@H](O)[C@H](C)O1 [doxorubicin]						increase in phosphorylation of MENA Ser125 site [6]: ~8 ×; increase in phosphorylation of HSP27 Ser82 site [7]: ~2.5 ×
KKKALHRQLGVAA (MAPKAPK2/MK2 inhibitor derived from HSP25)	significantly reduced					MENA-dependent fibronectin fibrillogenesis phenotype ([1]; increasing concentrations, 100 and 300 uM, 4 hours): Dose-dependent reductions; inhibition of MAPKAPK2/MK2 [8]: potent inhibitor; relative number of cells that invade through Matrigel insert membranes towards EGF ([2]; 100 uM): significantly reduce; relative number of cells that invade through Matrigel insert membranes towards EGF ([2]; 300 uM): significantly reduce; wound closure ([3]; 300 uM): 15%; MENA-dependent migration/chemotaxis phenotype (cells migrated through fibronectin coated membrane towards EGF) ([4]; 100 uM): significantly reverse; MENA-dependent migration/chemotaxis phenotype (cells migrated through fibronectin coated membrane towards EGF) ([4]; 300 uM): significantly reverse
